Laboratory results reported in patent publication US9486447B2, “Compositions and methods for controlling neuronal excitation” (The General Hospital Corporation, priority 2011, dated 2016).

What was measured:
[1] = target: hERG potassium channel (Homo sapiens, UniProt Q12809); assay: hERG inhibition, FluxOR system; format: cell-based; settings: with or without prior exposure to light
Description: Optovin (PDSP 22594) was tested for hERG inhibition using the FluxOR system with cisapride as a positive control.

[2] = UV-Vis absorbance spectrum; format: physicochemical
Source text: How might optovin activate TRPA1? When molecules absorb light, photons can excite electrons from their ground state to a […] via intersystem crossing^37. These photoactivated compounds can then undergo reactions by transferring energy or electrons to target molecules, including aqueous molecular oxygen. Optovin is a yellow-colored compound with peak absorbance at 415 nm (FIG. 4A). To determine if optovin is photochemically reactive, it was exposed to increasing intensities of 415 nm light and assayed for reactive oxygen species (ROS) generation.
Assay for singlet oxygen generation using singlet oxygen sensor green (SOSG) UV-vis absorption spectra were recorded at 20 uM in methanol using an Evolution 300 UV-Vis Spectrophotometer (Thermo Fisher Scientific Inc., Waltham, Mass.). 96-well black-sided plates were used for fluorescent probe experiments. […] An Omnilux Clear-U LED light source (Photo Therapeutics Inc), Carlsbad, Calif.) that emits blue light 415-nm+15-nm as a homogeneous spot with an irradiance of 50 mW/cm^2 measured with a power meter (model DMM 199 with 201 standard head; Coherent, Santa Clara, Calif.) that covers an area of one half of a 96-well plate.

[3] = target: 5-HT1A (Homo sapiens, UniProt P08908); assay: NIMH PDSP binding assay; settings: primary screening, mean of N = 4 determinations
5-HT1A, sequence (P08908 whole entry, species assumed): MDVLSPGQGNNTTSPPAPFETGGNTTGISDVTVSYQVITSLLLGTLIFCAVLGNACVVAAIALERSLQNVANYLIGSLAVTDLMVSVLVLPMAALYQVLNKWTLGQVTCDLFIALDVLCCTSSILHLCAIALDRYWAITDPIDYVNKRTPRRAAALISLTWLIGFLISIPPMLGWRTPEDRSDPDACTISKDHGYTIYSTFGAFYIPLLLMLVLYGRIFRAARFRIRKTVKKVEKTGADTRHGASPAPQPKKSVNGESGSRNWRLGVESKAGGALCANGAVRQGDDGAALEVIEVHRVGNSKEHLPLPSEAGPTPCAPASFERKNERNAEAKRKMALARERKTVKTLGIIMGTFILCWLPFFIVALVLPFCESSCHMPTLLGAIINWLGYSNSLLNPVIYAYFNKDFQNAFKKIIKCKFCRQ
Source text: (§1) To determine if optovin's mechanism of action could be predicted via behavioral profiling^30,32, optovin's behavioral profile was compared to the behavioral profiles of 700 annotated neuroactive compounds tested in triplicate. These compounds include ligands targeting the adrenergic, serotonergic, histaminergic, dopaminergic, cholinergic and glutamatergic pathways. […] To gain insight into optovin's mechanism of action, optovin and two active optovin analogs were profiled using the National Institutes of Mental Health Psychoactive Drug Screening Program (NIMH PDSP) to determine their activities against a panel of human and rodent CNS receptors, channels and transporters.
(§2) Activity determinations were generously provided by the National Institute of Mental Health's Psychoactive Drug Screening Program, Contract # HHSN-271-2008-00025-C(NIMH PDSP). Complete assay details are found on-line at: http://pdsp.med.unc.edu/UNC-CH %20Protocol %20Book.pdf

[4] = target: 5-HT6 (Homo sapiens, UniProt P50406); assay: NIMH PDSP binding assay; settings: primary screening, mean of N = 4 determinations
Source text: as §1, §2

[5] = target: 5-ht1e (Homo sapiens, UniProt P28566); assay: NIMH PDSP binding assay; settings: primary screening, mean of N = 4 determinations
5-ht1e, sequence (P28566 whole entry, species assumed): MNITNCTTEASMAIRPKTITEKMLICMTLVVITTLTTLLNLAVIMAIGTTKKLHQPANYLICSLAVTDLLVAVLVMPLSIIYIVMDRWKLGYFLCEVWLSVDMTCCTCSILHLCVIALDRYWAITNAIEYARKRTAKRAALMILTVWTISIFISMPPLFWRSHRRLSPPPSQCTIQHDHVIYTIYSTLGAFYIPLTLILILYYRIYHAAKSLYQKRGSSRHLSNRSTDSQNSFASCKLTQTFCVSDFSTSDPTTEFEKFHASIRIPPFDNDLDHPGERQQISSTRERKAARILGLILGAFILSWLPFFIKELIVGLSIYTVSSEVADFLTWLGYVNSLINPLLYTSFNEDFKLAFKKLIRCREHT
Source text: as §1, §2

[6] = target: 5-ht5a (Homo sapiens, UniProt P47898); assay: NIMH PDSP binding assay; settings: primary screening, mean of N = 4 determinations
Source text: as §1, §2

[7] = target: A2B2 (Rattus norvegicus, UniProt P12389+P12390); assay: NIMH PDSP binding assay; settings: primary screening, mean of N = 4 determinations
A2B2, sequence (P12389 28-511): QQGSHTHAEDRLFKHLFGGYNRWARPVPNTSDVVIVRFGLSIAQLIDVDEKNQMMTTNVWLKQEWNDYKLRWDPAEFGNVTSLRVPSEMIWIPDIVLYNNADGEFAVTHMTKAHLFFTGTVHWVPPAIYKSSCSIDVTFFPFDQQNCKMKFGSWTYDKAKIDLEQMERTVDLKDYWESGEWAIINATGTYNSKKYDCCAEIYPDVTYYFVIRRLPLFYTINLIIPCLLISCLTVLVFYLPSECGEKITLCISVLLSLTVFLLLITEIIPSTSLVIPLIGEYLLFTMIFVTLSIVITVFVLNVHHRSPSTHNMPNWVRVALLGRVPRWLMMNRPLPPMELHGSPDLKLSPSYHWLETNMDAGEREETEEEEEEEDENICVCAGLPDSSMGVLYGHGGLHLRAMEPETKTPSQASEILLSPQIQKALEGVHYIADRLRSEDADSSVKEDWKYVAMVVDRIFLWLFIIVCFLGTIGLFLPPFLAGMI
A2B2, sequence (P12390 25-500): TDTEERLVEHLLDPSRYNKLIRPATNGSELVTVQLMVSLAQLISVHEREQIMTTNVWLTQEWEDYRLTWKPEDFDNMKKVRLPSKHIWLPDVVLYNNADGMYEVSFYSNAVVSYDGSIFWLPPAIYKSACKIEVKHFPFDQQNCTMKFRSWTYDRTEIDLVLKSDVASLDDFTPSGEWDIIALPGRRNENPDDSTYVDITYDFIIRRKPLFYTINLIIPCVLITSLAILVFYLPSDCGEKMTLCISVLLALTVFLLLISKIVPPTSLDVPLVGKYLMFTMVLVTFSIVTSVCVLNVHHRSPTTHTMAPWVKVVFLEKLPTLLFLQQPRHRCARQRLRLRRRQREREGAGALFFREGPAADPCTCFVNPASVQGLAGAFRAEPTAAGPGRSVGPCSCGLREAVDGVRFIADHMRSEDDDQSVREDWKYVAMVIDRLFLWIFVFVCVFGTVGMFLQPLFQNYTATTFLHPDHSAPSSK
Source text: as §1, §2

[8] = target: Alpha1A (Homo sapiens, UniProt P35348); assay: NIMH PDSP binding assay; settings: primary screening, mean of N = 4 determinations
Source text: as §1, §2

[9] = target: Alpha1B (Homo sapiens, UniProt P35368); assay: NIMH PDSP binding assay; settings: primary screening, mean of N = 4 determinations
Source text: as §1, §2

[10] = target: Alpha2A (Homo sapiens, UniProt P08913); assay: NIMH PDSP binding assay; settings: primary screening, mean of N = 4 determinations
Alpha2A, sequence (P08913 whole entry): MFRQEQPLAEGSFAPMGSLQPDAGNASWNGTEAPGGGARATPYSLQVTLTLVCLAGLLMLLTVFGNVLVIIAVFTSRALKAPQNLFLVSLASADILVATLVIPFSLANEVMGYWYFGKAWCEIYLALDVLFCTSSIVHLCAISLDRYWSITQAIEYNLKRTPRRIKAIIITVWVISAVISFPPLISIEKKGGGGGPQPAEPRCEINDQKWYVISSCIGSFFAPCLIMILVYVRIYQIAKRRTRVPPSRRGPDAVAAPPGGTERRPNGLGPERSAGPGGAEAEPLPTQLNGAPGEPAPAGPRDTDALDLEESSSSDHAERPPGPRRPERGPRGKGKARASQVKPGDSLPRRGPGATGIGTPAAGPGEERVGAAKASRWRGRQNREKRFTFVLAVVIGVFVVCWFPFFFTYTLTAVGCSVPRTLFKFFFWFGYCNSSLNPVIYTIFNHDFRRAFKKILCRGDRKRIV
Source text: as §1, §2

[11] = target: Alpha2B (Homo sapiens, UniProt P18089); assay: NIMH PDSP binding assay; settings: primary screening, mean of N = 4 determinations
Source text: as §1, §2

[12] = system: BZP Rat Brain Site; assay: NIMH PDSP binding assay; settings: primary screening, mean of N = 4 determinations
Source text: as §1, §2

[13] = target: T1, Beta1 (Homo sapiens, UniProt P08588); assay: NIMH PDSP binding assay; settings: primary screening, mean of N = 4 determinations
T1 construct: NIMH PDSP
Source text: as §1, §2

[14] = target: T2, Beta2 (Homo sapiens, UniProt P07550); assay: NIMH PDSP binding assay; settings: primary screening, mean of N = 4 determinations
T2 construct: NIMH PDSP
T2 sequence (P07550 whole entry): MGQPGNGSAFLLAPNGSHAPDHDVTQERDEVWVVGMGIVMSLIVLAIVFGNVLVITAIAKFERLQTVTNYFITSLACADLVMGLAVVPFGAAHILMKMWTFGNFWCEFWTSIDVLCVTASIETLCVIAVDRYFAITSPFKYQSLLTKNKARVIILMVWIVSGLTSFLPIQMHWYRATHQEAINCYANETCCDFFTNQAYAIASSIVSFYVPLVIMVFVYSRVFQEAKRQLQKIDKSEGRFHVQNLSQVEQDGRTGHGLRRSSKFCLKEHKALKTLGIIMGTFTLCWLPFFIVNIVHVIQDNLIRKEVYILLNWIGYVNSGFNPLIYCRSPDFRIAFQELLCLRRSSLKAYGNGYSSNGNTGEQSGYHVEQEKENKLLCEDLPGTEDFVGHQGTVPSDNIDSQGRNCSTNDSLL
Source text: as §1, §2

[15] = target: T3, Beta3 (Homo sapiens, UniProt P13945); assay: NIMH PDSP binding assay; settings: primary screening, mean of N = 4 determinations
T3 construct: NIMH PDSP
Source text: as §1, §2

[16] = target: T4, D2 (Homo sapiens, UniProt P14416); assay: NIMH PDSP binding assay; settings: primary screening, mean of N = 4 determinations
T4 construct: NIMH PDSP
Source text: as §1, §2

[17] = target: T5, D3 (Homo sapiens, UniProt P35462); assay: NIMH PDSP binding assay; settings: primary screening, mean of N = 4 determinations
T5 construct: NIMH PDSP
Source text: as §1, §2

[18] = target: T6, H1 (Homo sapiens, UniProt P35367); assay: NIMH PDSP binding assay; settings: primary screening, mean of N = 4 determinations
T6 construct: NIMH PDSP
T6 sequence (P35367 whole entry): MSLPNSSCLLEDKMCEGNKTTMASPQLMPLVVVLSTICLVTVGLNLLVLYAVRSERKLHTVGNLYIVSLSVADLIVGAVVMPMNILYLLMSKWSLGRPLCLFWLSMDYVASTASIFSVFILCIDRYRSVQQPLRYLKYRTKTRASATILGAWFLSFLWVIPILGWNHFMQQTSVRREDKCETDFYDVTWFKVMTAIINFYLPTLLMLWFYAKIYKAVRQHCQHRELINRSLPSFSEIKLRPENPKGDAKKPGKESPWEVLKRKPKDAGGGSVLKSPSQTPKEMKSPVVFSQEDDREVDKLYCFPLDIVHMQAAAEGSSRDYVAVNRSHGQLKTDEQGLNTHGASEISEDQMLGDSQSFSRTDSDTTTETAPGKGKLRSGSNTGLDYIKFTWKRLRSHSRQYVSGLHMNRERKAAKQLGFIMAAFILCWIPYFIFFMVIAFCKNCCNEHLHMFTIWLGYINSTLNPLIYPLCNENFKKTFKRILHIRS
Source text: as §1, §2

[19] = target: T7, M2 (Homo sapiens, UniProt P08172); assay: NIMH PDSP binding assay; settings: primary screening, mean of N = 4 determinations
T7 construct: NIMH PDSP
Source text: as §1, §2

[20] = target: T8, M4 (Homo sapiens, UniProt P08173); assay: NIMH PDSP binding assay; settings: primary screening, mean of N = 4 determinations
T8 construct: NIMH PDSP
T8 sequence (P08173 whole entry): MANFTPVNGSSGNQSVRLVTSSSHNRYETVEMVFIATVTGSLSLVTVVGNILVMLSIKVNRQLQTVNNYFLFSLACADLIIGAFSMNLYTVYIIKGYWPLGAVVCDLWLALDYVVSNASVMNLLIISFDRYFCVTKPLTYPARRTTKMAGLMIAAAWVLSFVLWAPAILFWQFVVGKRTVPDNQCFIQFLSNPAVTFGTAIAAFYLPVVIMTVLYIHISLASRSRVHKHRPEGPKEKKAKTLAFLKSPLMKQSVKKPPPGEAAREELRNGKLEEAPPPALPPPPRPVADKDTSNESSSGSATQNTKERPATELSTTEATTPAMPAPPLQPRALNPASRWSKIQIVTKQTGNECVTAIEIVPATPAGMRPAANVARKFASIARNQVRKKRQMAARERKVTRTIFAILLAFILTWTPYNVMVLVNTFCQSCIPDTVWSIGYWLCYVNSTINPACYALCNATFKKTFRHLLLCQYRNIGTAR
Source text: as §1, §2

[21] = target: T9, M5 (Homo sapiens, UniProt P08912); assay: NIMH PDSP binding assay; settings: primary screening, mean of N = 4 determinations
T9 construct: NIMH PDSP
Source text: as §1, §2

[22] = target: T10, NET (Homo sapiens, UniProt P23975); assay: NIMH PDSP binding assay; settings: primary screening, mean of N = 4 determinations
T10 construct: NIMH PDSP
Source text: as §1, §2

[23] = system: Sigma 1; assay: NIMH PDSP binding assay; settings: primary screening, mean of N = 4 determinations
Source text: as §1, §2

[24] = target: Sigma 2 (Rattus norvegicus, UniProt Q5U3Y7); assay: NIMH PDSP binding assay; settings: primary screening, mean of N = 4 determinations
Sigma 2, sequence (Q5U3Y7 whole entry): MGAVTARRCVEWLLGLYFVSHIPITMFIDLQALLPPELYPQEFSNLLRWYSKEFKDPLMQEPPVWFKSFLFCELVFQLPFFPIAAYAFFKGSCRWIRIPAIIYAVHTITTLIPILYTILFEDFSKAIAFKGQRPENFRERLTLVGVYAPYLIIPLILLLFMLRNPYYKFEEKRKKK
Source text: as §1, §2

hERG potassium channel, sequence (Q12809 whole entry): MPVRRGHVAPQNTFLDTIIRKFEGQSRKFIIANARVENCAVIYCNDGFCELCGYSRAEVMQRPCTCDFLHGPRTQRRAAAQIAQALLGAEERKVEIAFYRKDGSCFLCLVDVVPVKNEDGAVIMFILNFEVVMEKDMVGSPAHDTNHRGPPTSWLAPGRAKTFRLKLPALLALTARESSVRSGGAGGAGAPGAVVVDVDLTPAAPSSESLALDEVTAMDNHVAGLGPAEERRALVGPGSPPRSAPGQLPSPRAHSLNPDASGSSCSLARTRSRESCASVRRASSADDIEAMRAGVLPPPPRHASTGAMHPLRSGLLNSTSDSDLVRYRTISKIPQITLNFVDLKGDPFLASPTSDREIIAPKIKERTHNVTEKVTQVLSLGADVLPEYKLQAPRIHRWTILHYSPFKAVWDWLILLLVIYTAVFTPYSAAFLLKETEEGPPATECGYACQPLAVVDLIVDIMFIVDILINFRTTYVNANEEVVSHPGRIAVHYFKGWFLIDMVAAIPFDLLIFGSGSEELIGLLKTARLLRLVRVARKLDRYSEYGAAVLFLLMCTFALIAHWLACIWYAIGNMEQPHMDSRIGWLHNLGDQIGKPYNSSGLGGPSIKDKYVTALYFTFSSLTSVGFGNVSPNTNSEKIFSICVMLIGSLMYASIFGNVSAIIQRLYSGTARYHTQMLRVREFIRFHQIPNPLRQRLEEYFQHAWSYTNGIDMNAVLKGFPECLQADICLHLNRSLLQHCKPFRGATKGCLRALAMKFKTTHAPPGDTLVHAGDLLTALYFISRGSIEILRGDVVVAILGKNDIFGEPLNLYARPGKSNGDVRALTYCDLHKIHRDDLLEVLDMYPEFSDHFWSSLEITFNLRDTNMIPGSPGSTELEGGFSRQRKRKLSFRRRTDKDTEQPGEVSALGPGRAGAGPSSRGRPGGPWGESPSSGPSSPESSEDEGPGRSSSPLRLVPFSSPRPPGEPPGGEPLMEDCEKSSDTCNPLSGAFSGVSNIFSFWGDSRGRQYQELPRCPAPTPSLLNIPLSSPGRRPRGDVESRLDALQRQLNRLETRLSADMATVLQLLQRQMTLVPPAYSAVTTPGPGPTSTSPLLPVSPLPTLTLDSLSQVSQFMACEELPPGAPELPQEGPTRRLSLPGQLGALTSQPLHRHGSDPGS

Q: With `Cc1cc(/C=C2/SC(=S)NC2=O)c(C)n1-c1cccnc1` [optovin] as the compound, how does the “effect on hERG activity” value [1] read?
A: Its value is “no effect on hERG activity”.

Q: What about the peak absorbance [2] of the same compound?
A: The peak absorbance was 415 nm.

Q: What about the “Avg % inhibition (5-HT1A)” value [3] of the same compound?
A: The value was 6.7%.

Q: And the “Avg % inhibition (5-HT6)” value [4]?
A: Its value is −16.5%.

Q: What about the “Avg % inhibition (5-ht1e)” value [5] of the same compound?
A: The value was −21.5%.

Q: What about the “Avg % inhibition (5-ht5a)” value [6] of the same compound?
A: The value was −17.7%.

Q: What about the “Avg % inhibition (A2B2)” value [7] of the same compound?
A: Its value is −19.2%.

Q: And the “Avg % inhibition (Alpha1A)” value [8]?
A: The value was −5.4%.

Q: What about the “Avg % inhibition (Alpha1B)” value [9] of the same compound?
A: Its value is 7.2%.

Q: And the “Avg % inhibition (Alpha2A)” value [10]?
A: The value was 40.5%.

Q: And the “Avg % inhibition (Alpha2B)” value [11]?
A: The value was 8.9%.

Q: What about the “Avg % inhibition (BZP Rat Brain Site)” value [12] of the same compound?
A: Its value is 5.3%.

Q: And the “Avg % inhibition (Beta1)” value [13]?
A: The value was 19.4%.

Q: And the “Avg % inhibition (Beta2)” value [14]?
A: The value was −3.8%.

Q: And the “Avg % inhibition (Beta3)” value [15]?
A: Its value is 20.2%.

Q: And the “Avg % inhibition (D2)” value [16]?
A: Its value is −6.8%.

Q: And the “Avg % inhibition (D3)” value [17]?
A: The value was 34.3%.

Q: What about the “Avg % inhibition (H1)” value [18] of the same compound?
A: The value was 1.1%.

Q: And the “Avg % inhibition (M2)” value [19]?
A: Its value is 6.6%.

Q: And the “Avg % inhibition (M4)” value [20]?
A: The value was 3.5%.

Q: What about the “Avg % inhibition (M5)” value [21] of the same compound?
A: Its value is 3.7%.

Q: What about the “Avg % inhibition (NET)” value [22] of the same compound?
A: The value was −1.3%.

Q: What about the “Avg % inhibition (Sigma 1)” value [23] of the same compound?
A: Its value is −13.7%.

Q: And the “Avg % inhibition (Sigma 2)” value [24]?
A: Its value is 16.0%.
